# Measurements reported in PMC9610434, “Discovery of 2′,6-Bis(4-hydroxybenzyl)-2-acetylcyclohexanone, a Novel FtsZ Inhibitor” (Molecules, 2022).
# Where two headings read alike, the source gives them in different places.
# Columns and labels:
# Bacillus subtilis 168 [1] = test system: Bacillus subtilis 168; parameters: method as in PMID 28002947; conditions: cited from earlier work
# [2] = target: T1, S. pneumoniae FtsZ (SpnFtsZ) (Streptococcus pneumoniae, UniProt A0A0H2ZNE0); conditions: cited from earlier work
# Bacillus subtilis 168 [3] = assay: Growth inhibition / MIC by agar dilution, Bacillus subtilis 168; format: cell-based
# Experimental: (§1) The Minimum Inhibitory Concentration (MIC) was determined as described previously, following the agar dilution method. From an overnight culture of Bacillus subtilis 168 (Bs 168), 2% inoculation was performed to a fresh tube containing Luria Broth. When the bacteria reached an O.D600 = 0.4, the culture was serially diluted to a dilution factor of 10^4. Then, 20 μL of the diluted culture was spotted on plates containing different concentrations of 3 (0, 1, 3, 5, 7, 9, 10, 11, 12, 13 μM) and incubated, at 37 °C, for […], after which the colonies were counted. Similar procedure was performed for Streptococcus pneumoniae TIGR4. Bacteria were grown in Todd–Hewitt Yeast Broth up to 0.4 OD600 and serially diluted. Upon addition on to BHI agar plates containing different concentrations of 3 (0.5, 1, 1.5, 2, 3, 5, 7, 10 μM), the colonies were incubated for 24 h, at 37 °C, with 5% CO2. […] IC50 was determined by plotting percentage inhibition versus log of concentration of drug, using GraphPad Prism 7 software.
# [4] = test system: Streptococcus pneumoniae TIGR4; assay: Growth inhibition / MIC by agar dilution, Streptococcus pneumoniae TIGR4; format: cell-based; conditions: for MIC: Streptococcus pneumoniae
# Experimental: as §1
# [5] = Cytotoxicity testing in mouse skin L929 cells; format: cell-based; conditions: read-out: GI50 (concentration for 50% cell growth inhibition)
# Z-ring in Bs 168 cells = assay: Immunostaining for Z-ring and nucleoid, Bs 168; format: cell-based, Bacillus subtilis; conditions: Bs 168, 8 μM, 10 min
# Experimental: (§2) Immunostaining of Bs 168 cells was performed as described previously. Briefly, from an overnight culture of Bs 168, 2% inoculation was performed to a fresh tube containing Luria Broth. When the bacteria reached an O.D600 = 0.4, the culture was divided into two fractions. To one fraction, 8 μM 3 was added, and to another, an equal volume of DMSO. The cells were incubated at 37 °C under shaking conditions for 10 min. Cells were then fixed for 30 min with 2.8% formaldehyde and 0.04% glutaraldehyde. Cells were permeabilized using 0.1% Triton X-100 and then treated with 1 mg/mL lysozyme and 5 mM EDTA for 45 min. Treatment with 0.5% BSA for 30 min was performed to block non-specific binding sites. Then, 1 h treatment each with primary antibody, anti-FtsZ antibody raised in rabbit (1:50 dilution) and secondary antibody (1:400), Alexa Fluor^TM 594 goat anti-rabbit IgG (H+L) was performed. Nucleoid staining was performed with 1 µg/mL 4′-6-diamidino-2-phenylindole (DAPI) for 20 min. Images were captured using Confocal Laser Scanning Microscope—Carl Zeiss, LSM 780. Similar procedure was followed for Sp TIGR4, which was treated with 2 μM 3 for 1 h before following the above immunostaining procedure.
# Z-ring in Sp TIGR4 = assay: Immunostaining for Z-ring and nucleoid, Sp TIGR4; format: cell-based, Streptococcus pneumoniae; conditions: Sp TIGR4, 2 μM, 1 h
# Experimental: as §2
# membrane of Bs 168 cells = assay: Membrane staining of live cells with FM 4-64; format: cell-based, Bacillus subtilis; conditions: Bs 168, 8 μM, 10 min
# Experimental: Membrane staining of live Bs 168 cells was performed using FM 4–64 stain [28]. Bs 168 cells were grown as described above and treated with 8 μM 3 or equivalent volume of DMSO for 10 min. Cells were pelleted down and resuspended in PBS containing 10 μg/mL FM-4–64 dye. After incubation for another 10 min under shaking conditions in the dark, the cells were washed with PBS to remove excess dye. The cells were then mounted on the slide pre-coated with poly-L-lysine and covered with a coverslip. Images were captured in Confocal Laser Scanning Microscope—Carl Zeiss, LSM 780.
# [6] = test system: S. pneumoniae TIGR4 cells; assay: Scanning electron microscopy of cell morphology; format: cell-based, Streptococcus pneumoniae; conditions: Sp TIGR4, 2 μM, 1 h, SEM
# Experimental: Sp TIGR4 was grown as described above and treated with 2 μM 3 or equivalent volume of DMSO for 1 h. The cells were then fixed with 2.8% formaldehyde and 0.04% glutaraldehyde and resuspended in PBS as described earlier. A small volume (5 μL) was spotted on an aluminium foil and allowed to air dry completely. Images were captured using Field Emission Gun-Scanning Electron Microscope (FEG-SEM) JSM-7600F.
# [7] = target: T1, S. pneumoniae FtsZ (SpnFtsZ); assay: Binding to SpnFtsZ by tryptophan fluorescence
# Experimental: The binding of 3 to SpnFtsZ was assessed using tryptophan fluorescence. The decrease in the fluorescence intensity of SpnFtsZ in the presence of 3 was measured. Then, 2 μM of SpnFtsZ in 50 mM PIPES pH 7.4, 50 mM KCl, was incubated with different concentrations of 3 (0.2, 0.5, 1, 1.5, 2, 3, 4, 5, 7, 10), at 25 °C, for 10 min. The fluorescence spectra were measured at an emission range of 310 nm to 410 nm, after excitation at 295 nm in JASCO FP-8300 spectrofluorometer. Due to the absorbance of 3 at 340 nm, inner filter correction was performed using the below equation:(1) Fcorrected=Fobserved∗antilog ODex+ODem/2
# The binding constant, Kd, was determined using the following equation:(2) ∆F=∆Fmax×L/Kd+L
# ΔF is the change in the fluorescence intensity of SpnFtsZ, ΔFmax is the maximal change in the fluorescence of SpnFtsZ when the receptor site is fully occupied, and [L] is the concentration of 3.
# SpnFtsZ [8] = assay: FtsZ polymerization by light scattering at 400 nm; format: biochemical, Streptococcus pneumoniae; conditions: 10 μM SpnFtsZ, 1 mM GTP, increasing concentration
# Experimental: SpnFtsZ (10 μM) in 50 mM PIPES pH 7.4, 50 mM KCl and 5 mM MgCl2 (PKM) buffer was incubated with different concentrations of 3 (0, 1, 2, 3, 5, 6, 7) for 20 min, at 25 °C. After the addition of 1 mM GTP, the polymerization was monitored for 600 s, at 37 °C, using light scattering at 400 nm in a JASCO FP-8300 spectrofluorometer.
# SpnFtsZ [9] = assay: FtsZ sedimentation assay; format: biochemical, Streptococcus pneumoniae; conditions: 10 μM compound, 10 μM SpnFtsZ, p = 0.02
# Experimental: SpnFtsZ (10 μM) in PKM buffer was incubated with different concentrations of 3 (0.5, 1, 3, 6, 10) for 20 min at 25 °C. The reaction mixture was allowed to polymerize by adding 1 mM GTP and incubated for 600 s, at 37 °C. The mixture was then subjected to ultra-centrifugation at 60,000 RPM for 30 min at 30 °C. The supernatant was collected and quantified using Bradford’s reagent. The amount of FtsZ present in the pellet was assessed by subtracting the supernatant concentration from the total protein [30].
# SpnFtsZ [10] = assay: Transmission electron microscopy of SpnFtsZ filaments; format: biochemical, Streptococcus pneumoniae; conditions: 10 μM compound
# Experimental: SpnFtsZ (10 μM) in PKM buffer was incubated without and with 10 μM 3 for 20 min, at 25 °C. The mixture was then polymerized by the addition of 1 mM GTP for 200 s, at 37 °C. Samples for EM were prepared on a fresh carbon–formvar-coated copper EM grid according to a previously described method. Imaging was performed the next day using JEOL JEM 1220 HRTEM (200 kV). ImageJ software was used to determine the length of the FtsZ filaments.
# SpnFtsZ [11] = assay: Atomic force microscopy of SpnFtsZ filaments; format: biochemical, Streptococcus pneumoniae; conditions: 10 μM compound, 4 μM SpnFtsZ; control filaments 9.02 ± 5.2 nm
# Experimental: Then, 4 μM SpnFtsZ in PKM buffer was incubated with or without 10 μM 3, for 20 min, at 25 °C. Upon addition of 1 mM GTP, FtsZ was polymerized for 300 s, at 37 °C. AFM samples were prepared according to a previously described method. Then, 20 μL of each sample was added onto the mica sheet and allowed to absorb on it for 15 min. The sheet was then washed with MilliQ and allowed to dry overnight. The samples were imaged the next day using MFP-3D BIO, Asylum Research USA.
# [12] = target: T2, FtsZ from Bacillus subtilis (BsFtsZ) (Bacillus subtilis, UniProt P17865); assay: Transmission electron microscopy of BsFtsZ filaments; format: biochemical; conditions: 20 μM compound, 5 μM BsFtsZ
# T2 construct: made in house
# Experimental: In another experiment, BsFtsZ (5 μM) in PKM buffer was incubated without and with 20 μM 3 for 20 min, at 25 °C. The mixture was then polymerized by the addition of 1 mM GTP for 600 s, at 37 °C. Samples for imaging were prepared using the same procedure described above.
# tubulin = assay: Tubulin polymerization assay; format: biochemical, goat; conditions: 13 μM tubulin, light scattering at 350 nm
# Experimental: Streptococcus pneumoniae FtsZ (SpnFtsZ) and Bacillus subtilis FtsZ (BsFtsZ) were purified as described previously. Tubulin from goat brain was purified as described previously. The concentration of all the proteins was estimated using Bradford’s reagent.
# Tubulin polymerization was performed as described previously. Purified tubulin (13 μM) in PEM buffer (50 mM PIPES pH 6.8, 3 mM MgCl2 and 1 mM EGTA) + 10% DMSO was incubated with 3 for 10 min on ice. Then, 1 mM GTP was added to the mixture, and polymerization was monitored by light scattering in SoftMax Spectra Multi Plate reader for 30 min, at 37 °C. The excitation and emission wavelengths were set to 350 nm.
# alkaline phosphatase = assay: Alkaline phosphatase activity assay; format: biochemical; conditions: 5, 10 and 20 μM, PNPP substrate
# Experimental: Alkaline phosphatase assay was performed as described previously. Then, 2 U/mL Alkaline Phosphatase enzyme in glycine NaOH buffer, pH 10.4 with 100 mM glycine, 1 mM MgCl2, and 0.1 mM ZnCl2 was incubated with different concentrations (5, 10, and 20 μM) of 3 for 10 min on ice. Immediately after the addition of 250 μM para-4-nitrophenyl phosphate (PNPP), the absorbance at 410 nm was measured for 700 s in a JASCO V-730 spectrophotometer.
# S. pneumoniae = test system: S. pneumoniae; parameters: method as in PMID 18801997; conditions: cited from earlier work
# T1 sequence (A0A0H2ZNE0 whole entry): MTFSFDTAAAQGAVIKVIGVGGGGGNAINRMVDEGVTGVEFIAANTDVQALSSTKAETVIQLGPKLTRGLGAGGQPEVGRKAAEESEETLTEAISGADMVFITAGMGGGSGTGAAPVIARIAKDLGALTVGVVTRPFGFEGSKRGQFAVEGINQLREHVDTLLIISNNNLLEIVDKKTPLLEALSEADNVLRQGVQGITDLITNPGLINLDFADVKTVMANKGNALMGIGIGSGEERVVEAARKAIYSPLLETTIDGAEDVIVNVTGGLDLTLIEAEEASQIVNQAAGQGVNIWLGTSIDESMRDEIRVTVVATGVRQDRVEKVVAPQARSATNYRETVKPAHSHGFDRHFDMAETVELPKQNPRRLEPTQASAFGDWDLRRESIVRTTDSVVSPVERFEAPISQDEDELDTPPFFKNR
# T2 sequence (P17865 whole entry): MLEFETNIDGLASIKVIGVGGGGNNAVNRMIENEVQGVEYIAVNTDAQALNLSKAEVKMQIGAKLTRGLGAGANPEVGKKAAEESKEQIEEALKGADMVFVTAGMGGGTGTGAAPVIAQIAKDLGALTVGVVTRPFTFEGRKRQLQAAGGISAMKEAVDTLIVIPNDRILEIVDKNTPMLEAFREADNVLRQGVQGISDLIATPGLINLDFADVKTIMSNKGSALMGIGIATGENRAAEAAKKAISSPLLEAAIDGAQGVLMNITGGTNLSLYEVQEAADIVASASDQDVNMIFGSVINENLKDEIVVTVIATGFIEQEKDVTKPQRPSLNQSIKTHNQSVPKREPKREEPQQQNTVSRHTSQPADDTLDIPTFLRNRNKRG
smiles,measurement,setting,value
O=C(/C=C/c1ccc(O)cc1)C1CCC/C(=C\c2ccc(O)cc2)C1=O (centres unmarked) [Compound 1],melting point,,225 to 227 °C
same,IC50,Bacillus subtilis 168 [1]; Bs168,1.2 ± 0.5 µM
same,MIC,Bacillus subtilis 168 [1]; Bs168 cells,2.0 to 4.0 µg/mL
same,Kd,[2],4 ± 1.1 µM
"O=C(CCc1ccc(O)cc1)c1cccc(Cc2ccc(O)cc2)c1O [Compound 2, 1-{2-Hydroxy-3-(4-hydroxybenzyl)phenyl}-3-(4-hydroxyphenyl)propan-1-one]",inhibition at 15 µM,"Bacillus subtilis 168 [3]; Bacillus subtilis, 168, treatment with 15 µM, read-out: inhibition of growth of B. subtilis (Bs168)",21.5 ± 0.5%
"O=C(CCc1ccc(O)cc1)[C@@H]1CCC[C@H](Cc2ccc(O)cc2)C1=O [Compound 3, 2-(4-Hydroxybenzyl)-6-{3-(4-hydroxyphenyl)propanoyl}cyclohexan-1-one]",MIC,"Bacillus subtilis 168 [3]; Bacillus subtilis, 168, 6 h, Bs168, agar dilution, 6 h, 37 °C, read-out: MIC",11 µM
same,MIC,"Bacillus subtilis 168 [3]; Bacillus subtilis, 168, Bs168 cells, converted from µM, read-out: MIC (equivalent)",≤ 3.5 µg/mL
same,IC50,"Bacillus subtilis 168 [3]; Bacillus subtilis, 168, Bs168, inhibition of proliferation",4.97 ± 0.01 µM
same,IC50,"[4]; Streptococcus pneumoniae TIGR4, inhibition of proliferation",1 ± 0.01 µM
same,MIC,"[4]; TIGR4, 24 h, Streptococcus pneumoniae TIGR4, agar dilution, 24 h, read-out: MIC",2 µM
same,MIC,"[4]; TIGR4, S. pneumoniae, converted from µM, read-out: MIC (equivalent)",≤ 0.7 µg/mL
same,GI50,[5],7 ± 2.35 µM
same,effect on nucleoid separation,Z-ring in Bs 168 cells; DAPI,no effect on the nucleoid separation
same,dividing cells with a prominent Z-ring,Z-ring in Bs 168 cells; control 35 ± 17%,3 ± 3%
same,effect on nucleoid separation,Z-ring in Sp TIGR4; DAPI,no effect on the nucleoid separation
same,percentage of cells without a Z-ring,Z-ring in Sp TIGR4; control 50%,73%
same,effect on cell membrane,membrane of Bs 168 cells,remains intact
same,effect on cell morphology and membrane,[6],no changes in the morphology
same,Kd,[7],2.2 ± 0.3 µM
same,effect on FtsZ polymerization (light scattering),SpnFtsZ [8],inhibits FtsZ polymerization
same,reduction of FtsZ pellet compared to control,SpnFtsZ [9],17%
same,FtsZ aggregation (TEM),SpnFtsZ [10]; 10 μM SpnFtsZ,large aggregates were seen throughout the grid
same,length of FtsZ filaments (TEM),SpnFtsZ [10]; control 2.1 ± 1.2 μm,0.7 ± 0.6 μm
same,average height of FtsZ aggregates (AFM),SpnFtsZ [11],233.2 ± 151.2 nm
same,BsFtsZ aggregation (TEM),[12],large aggregates of BsFtsZ
same,inhibition of tubulin polymerization,tubulin,no significant inhibition
same,inhibition of alkaline phosphatase activity,alkaline phosphatase,no detectable inhibitory activity
"NC(=O)c1c(F)ccc(OCc2nc3cc(Cl)cnc3s2)c1F [PC190723 4, PC190723]",MIC,S. pneumoniae,more than 64 µg/mL
same,MIC,S. pneumoniae; converted from µg/mL,> 180 µM
